The values that follow come from patent US7964594B1, “Amino oxazine derivatives” (Hoffmann-La Roche Inc., priority 2009, dated 2011).

The experiment concerns the target T1, BACE2 (Rattus norvegicus, UniProt Q6IE75).
T1 construct: endogenous cellular BACE2 in the Ins1e rat cell line; endogenous in cells; host or cells: INS-TMEM27 (INS1e-derived rat insulinoma cell line with doxycycline-inducible full-length hTMEM27)
T1 sequence (Q6IE75 63-514): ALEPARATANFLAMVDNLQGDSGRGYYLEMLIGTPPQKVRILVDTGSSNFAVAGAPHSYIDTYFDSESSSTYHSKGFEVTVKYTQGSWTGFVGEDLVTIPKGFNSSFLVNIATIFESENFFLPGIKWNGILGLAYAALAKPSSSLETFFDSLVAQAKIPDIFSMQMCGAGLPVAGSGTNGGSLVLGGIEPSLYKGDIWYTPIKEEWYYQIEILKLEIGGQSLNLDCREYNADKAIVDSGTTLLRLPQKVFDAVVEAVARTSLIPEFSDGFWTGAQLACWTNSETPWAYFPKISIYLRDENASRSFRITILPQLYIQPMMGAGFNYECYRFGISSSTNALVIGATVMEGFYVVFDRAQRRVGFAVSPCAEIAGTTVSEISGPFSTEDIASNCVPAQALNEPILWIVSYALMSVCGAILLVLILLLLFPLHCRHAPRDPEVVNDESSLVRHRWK
The experiment is described as follows: Assay for BACE inhibition by measuring cellular TMEM27 cleavage (INS-TMEM27 cells, ELISA of shed TMEM27). It is filed as cell-based. To be noted: inhibition of human TMEM27 cleavage by endogenous cellular BACE2 in Ins1e rat cell line; ELISA of culture medium. The text has this: Assay for BACE Inhibition by Measuring Cellular TMEM27 Cleavage
The assay uses the principle of inhibition of human TMEM27 cleavage by endogenous cellular BACE2 in the Ins1e rat cell line and shedding from the cell surface into the culture medium, followed by detection in an ELISA assay. Inhibition of BACE2 prevents the cleavage and shedding in a dose-dependent manner.
The stable cell line “INS-TMEM27” represents an INS1e-derived cell line with inducible expression (using the TetOn system) of full-length hTMEM27 in a doxycycline-dependent manner. The cells were cultured throughout the experiment in RPMI1640+Glutamax (Invitrogen) Penicillin/Streptomycin, 10% Fetal bovine serum, […], […], 100 micrograms/ml G418 and 100 microgram/ml hygromycin and were grown in adherent culture at 37° C. in a standard CO2 cell culture incubator.
INS-TMEM27 cells were seeded in 96-well plates. After 2 days in culture, BACE2 inhibitor was added in a range of concentrations as required by the assay and after a further two hours, doxycycline was added to a final concentration of 500 ng/ml. The cells were incubated for a further 46 hours and the supernatant harvested for detection of shed TMEM27.
An ELISA assay (using a pair of mouse anti-human-TMEM27 antibodies, raised against the extracellular domain of TMEM27) was used for detection of TMEM27 in the culture medium. An IC50 for BACE2 inhibition was calculated using the ELISA readout for each inhibitor concentration with standard curve-fitting software XLfit (IDBS) for the Excel spreadsheet program.
For orientation: An ELISA detects its analyte on a solid surface through an enzyme-linked reagent.
On to `C[C@@]1(c2cc(NC(=O)c3ncccc3F)ccc2F)CCOC(N)=N1` [Example 6, 3-Fluoro-pyridine-2-carboxylic acid [3-((S)-2-amino-4-methyl-5,6-dihydro-4H-[1,3]oxazin-4-yl)-4-fluoro-phenyl]-amide], for which 19 nM corresponded to half-maximal inhibition (IC50).

For `CC[C@@]1(c2cc(NC(=O)c3ccc(C)s3)ccc2F)CCOC(N)=N1` [Example 20], the midpoint of inhibition, the IC50, lay at 48 nM.

For `Cn1cc(Cl)c(C(=O)Nc2ccc(F)c([C@@]3(C)N=C(N)OCC34CC4)c2)n1` [Example 56, (S)—N-(3-(6-Amino-8-methyl-5-oxa-7-azaspiro[2.5]oct-6-en-8-yl)-4-fluorophenyl)-4-chloro-1-methyl-1H-pyrazole-3-carboxamide], half-maximal inhibition (IC50) was put at 6 nM.

As to `C[C@]1(c2cc(NC(=O)C3(C(F)(F)F)CC3)ccc2F)N=C(N)OCC12CC2` [Example 54, (S)—N-(3-(6-Amino-8-methyl-5-oxa-7-azaspiro[2.5]oct-6-en-8-yl)-4-fluorophenyl)-1-(trifluoromethyl)cyclopropanecarboxamide], the IC50 (in general, the concentration at which inhibition is half-maximal) came out at 810 nM.

`C[C@]1(c2cc(NC(=O)c3ccc(F)cn3)ccc2F)N=C(N)OCC12CC2` [Example 40, 5-Fluoro-pyridine-2-carboxylic acid [3-((S)-6-amino-8-methyl-5-oxa-7-aza-spiro[2.5]oct-6-en-8-yl)-4-fluoro-phenyl]-amide] returned a half-maximal inhibitory concentration (IC50) of 39 nM.

Consider `C[C@@]1(c2cc(NC(=O)C(F)C(F)(F)F)ccc2F)CCOC(N)=N1` (stereo partly drawn) [Example 45, N-[3-((S)-2-Amino-4-methyl-5,6-dihydro-4H-[1,3]oxazin-4-yl)-4-fluoro-phenyl]-2,3,3,3-tetrafluoro-propionamide], for which the IC50 came to 400 nM.

Regarding `C[C@]1(c2cc(NC(=O)c3ccc(Cl)cn3)ccc2F)N=C(N)OCC12CC2` [Example 36, 5-Chloro-pyridine-2-carboxylic acid [3-((S)-6-amino-8-methyl-5-oxa-7-aza-spiro[2.5]oct-6-en-8-yl)-4-fluoro-phenyl]-amide], the midpoint of inhibition, the IC50, lay at 16 nM.

`C[C@@]1(c2cc(NC(=O)c3cc4ccccc4s3)ccc2F)CCOC(N)=N1` [Example 13, Benzo[b]thiophene-2-carboxylic acid [3-((S)-2-amino-4-methyl-5,6-dihydro-4H-[1,3]oxazin-4-yl)-4-fluoro-phenyl]-amide] had an IC50 of 52 nM.

`C[C@]1(c2cc(NC(=O)c3ccc(OC(F)F)cn3)ccc2F)N=C(N)OCC12CC2` [Example 42, 5-Difluoromethoxy-pyridine-2-carboxylic acid [3-((S)-6-amino-8-methyl-5-oxa-7-aza-Spiro[2.5]oct-6-en-8-yl)-4-fluoro-phenyl]-amide] gave a half-maximal inhibitory concentration (IC50) of 210 nM.

Compound `C[C@@]1(c2cc(NC(=O)c3ccc(C(F)(F)F)cn3)ccc2F)CCOC(N)=N1` [Example 5, 5-Trifluoromethyl-pyridine-2-carboxylic acid [3-((S)-2-amino-4-methyl-5,6-dihydro-4H-[1,3]oxazin-4-yl)-4-fluoro-phenyl]-amide] displayed an IC50 of 89 nM.

In the case of `Cn1ccc(C(=O)Nc2ccc(F)c([C@]3(C)CCOC(N)=N3)c2)n1` [Example 29], the midpoint of inhibition, the IC50, lay at 3 nM.

`Cc1nc(C(=O)Nc2ccc(F)c([C@]3(C)CCOC(N)=N3)c2)co1` [Example 8] gave an IC50 of 19 nM. This IC50 is about 6.3-fold higher than that of the compound before.

For `C[C@]1(c2cc(NC(=O)c3ccc(C#N)cn3)ccc2F)N=C(N)OCC12CC2` [Example 41, 5-Cyano-pyridine-2-carboxylic acid [3-((S)-6-amino-8-methyl-5-oxa-7-aza-spiro[2.5]oct-6-en-8-yl)-4-fluoro-phenyl]-amide], the concentration for half-maximal inhibition (IC50) stood at 52 nM.

`C[C@@]1(c2cc(NC(=O)c3cnc(Cl)cn3)ccc2F)CCOC(N)=N1` [Example 14] came in with an IC50 of 190 nM.

Regarding `NC1=N[C@@]2(c3cc(NC(=O)c4ccc(Cl)cn4)ccc3F)COC[C@H]2CO1` [Example 65, 5-Chloro-pyridine-2-carboxylic acid [3-((4aS,7aS)-2-amino-4a,5-dihydro-4H-furo[3,4-d][1,3]oxazin-7a-yl)-4-fluoro-phenyl]-amide], the IC50 is 60 nM.

In turn, `C[C@@]1(c2cc(NC(=O)c3cc(Cl)ccn3)ccc2F)CCOC(N)=N1` [Example 9] yielded a concentration for half-maximal inhibition (IC50) of 143 nM. This IC50 lies about 2.4-fold higher than the previous one.

In turn, `CC[C@@]1(c2cc(NC(=O)c3ncc(Cl)cc3C)ccc2F)CCOC(N)=N1` [Example 23] registered an IC50 of 9 nM.

The compound `CC[C@@]1(c2cc(NC(=O)c3coc(C)n3)ccc2F)CCOC(N)=N1` [Example 24] displayed an IC50 of 1 nM.

`C[C@@]1(c2cc(NC(=O)c3ncccc3OCC(F)(F)F)ccc2F)CCOC(N)=N1` [Example 60, (S)—N-(3-(2-Amino-4-methyl-5,6-dihydro-4H-1,3-oxazin-4-yl)-4-fluorophenyl)-3-(2,2,2-trifluoroethoxy)picolinamide] had an IC50 of 143 nM.

`C[C@@]1(c2cc(NC(=O)c3ncccc3-c3ccccc3)ccc2F)CCOC(N)=N1` [Example 12, 3-Phenyl-pyridine-2-carboxylic acid [3-((S)-2-amino-4-methyl-5,6-dihydro-4H-[1,3]oxazin-4-yl)-4-fluoro-phenyl]-amide]: the IC50 was determined as 34 nM.

In turn, `Cc1ccc(C(=O)Nc2ccc(F)c([C@]3(C)CCOC(N)=N3)c2)nc1` [Example 15] showed a half-inhibitory concentration (IC50) of 4.5 nM.

`Cc1c(C(=O)Nc2ccc(F)c([C@@]3(C)N=C(N)OCC34CC4)c2)noc1Cl` [Example 57, (S)—N-(3-(6-Amino-8-methyl-5-oxa-7-azaspiro[2.5]oct-6-en-8-yl)-4-fluorophenyl)-5-chloro-4-methylisoxazole-3-carboxamide] came in with an IC50 of 6410 nM.

In the case of `C[C@@]1(c2cc(NC(=O)C3CC3(F)F)ccc2F)CCOC(N)=N1` (stereo partly drawn) [Example 46, 2,2-Difluoro-cyclopropanecarboxylic acid [3-((S)-2-amino-4-methyl-5,6-dihydro-4H-[1,3]oxazin-4-yl)-4-fluoro-phenyl]-amide], the IC50 was found to be 70 nM.

With `C[C@@]1(c2cc(NC(=O)c3ncc(F)cc3F)ccc2F)CCOC(N)=N1` [Example 33, 3,5-Difluoro-pyridine-2-carboxylic acid [3-((S)-2-amino-4-methyl-5,6-dihydro-4H-[1,3]oxazin-4-yl)-4-fluoro-phenyl]-amide], inhibition was half-maximal at 7 nM (IC50).

`CC1(C(=O)Nc2ccc(F)c([C@]3(C)CCOC(N)=N3)c2)COC1` [Example 62, 3-Methyl-oxetane-3-carboxylic acid [3-((S)-2-amino-4-methyl-5,6-dihydro-4H-[1,3]oxazin-4-yl)-4-fluoro-phenyl]-amide]: the 50% inhibitory concentration (IC50) is 9130 nM.

Consider `C[C@@]1(c2cc(NC(=O)c3ncc(Cl)cc3Cl)ccc2F)CCOC(N)=N1` [Example 1, 3,5-Dichloro-pyridine-2-carboxylic acid [3-((S)-2-amino-4-methyl-5,6-dihydro-4H-[1,3]oxazin-4-yl)-4-fluoro-phenyl]-amide], for which inhibition was half-maximal at 4 nM (IC50).

Regarding `C[C@]1(c2cc(NC(=O)c3ncc(F)cc3F)ccc2F)N=C(N)OCC12CC2` [Example 49, (S)—N-(3-(6-Amino-8-methyl-5-oxa-7-azaspiro[2.5]oct-6-en-8-yl)-4-fluorophenyl)-3,5-difluoropicolinamide], 14 nM corresponded to half-maximal inhibition (IC50).

Compound `C[C@]1(c2cc(NC(=O)c3ncc(Cl)cn3)ccc2F)N=C(N)OCC12CC2` [Example 44, 5-Chloro-pyrimidine-2-carboxylic acid [3-((S)-6-amino-8-methyl-5-oxa-7-aza-spiro[2.5]oct-6-en-8-yl)-4-fluoro-phenyl]-amide] gave an IC50 of 7.1 nM.

`C[C@@]1(c2cc(NC(=O)c3ccc(Cl)cn3)ccc2F)CCOC(N)=N1` [Example 2, 5-Chloro-pyridine-2-carboxylic acid [3-((S)-2-amino-4-methyl-5,6-dihydro-4H-[1,3]oxazin-4-yl)-4-fluoro-phenyl]-amide] gave a half-maximal inhibitory concentration (IC50) of 10 nM.

Consider `Cc1conc1C(=O)Nc1ccc(F)c([C@]2(C)CCOC(N)=N2)c1` [Example 63], for which half-maximal inhibition (IC50) required 104 nM.

`C[C@@]1(c2cc(NC(=O)c3ccc(Cl)s3)ccc2F)CCOC(N)=N1` [Example 10, 5-Chloro-thiophene-2-carboxylic acid [3-((S)-2-amino-4-methyl-5,6-dihydro-4H-[1,3]oxazin-4-yl)-4-fluoro-phenyl]-amide]: the IC50 is 915 nM.

Take `C[C@]1(c2cc(NC(=O)c3ncc(Cl)cc3Cl)ccc2F)N=C(N)OCC12CC2` [Example 53, (S)—N-(3-(6-Amino-8-methyl-5-oxa-7-azaspiro[2.5]oct-6-en-8-yl)-4-fluorophenyl)-3,5-dichloropicolinamide]: the midpoint of inhibition, the IC50, lay at 6 nM.
